Read-outs that look alike come from different tables or passages of the source.
Legend:
tissue PDH activity = assay: Ex vivo PDH activation assay (liver and epididymal adipose tissue mitochondrial fractions after oral dosing); assay type: in vivo, Sprague-Dawley rats; conditions: 3 mg/kg, rat
Procedure: The action of test compound on tissue PDH activity was evaluated. NADH production was detected via p-iodonitrotetrazolium violet (INT)-coupled system to measure PDH activity.
Normal male Sprague-Dawley rats were randomly allocated m to the vehicle group and the test compound groups. The vehicle (0.5% aqueous methylcellulose solution, 5 mL/kg) or the test compound was orally administered to the rats. At 5 or 20 hr after administration, the rats were anesthetized with an intraperitoneal injection of sodium pentobarbital (60 mg/kg), and liver slices and epididymal adipose tissues were collected.
To the liver slices were rapidly added 9 volumes of ice-cold homogenization buffer (0.25 mol/L sucrose, 5 mmol/L tris(hydroxymethyl)aminomethane hydrochloride (pH 7.5), 2 mmol/L EDTA), and the mixtures were homogenized using a Polytron homogenizer. The homogenates were centrifuged at 600×g, 4° C. for 10 min to obtain the supernatant. The supernatants (1 mL) were centrifuged at 16,000×g, 4° C. for 10 min to collect the precipitates. The precipitates were washed by resuspension in the homogenization buffer (1 mL) and centrifuged in the same manner. The precipitates were frozen with liquid nitrogen and stored at −80° C. as the liver mitochondrial fraction.
To the adipose tissues were rapidly added 3 volumes of an ice-cold homogenization buffer, and the mixtures were homogenized using a Polytron homogenizer. The homogenates were centrifuged at 600×g, 4° C. for 10 min to obtain the supernatant. The supernatants were centrifuged at 16,000×g, 4° C. for 10 min to collect the precipitates. The precipitates were washed by resuspension in the homogenization buffer (1 mL) and centrifuged in the same manner. The precipitates were frozen with liquid nitrogen and stored at −80° C. as the adipose tissue mitochondrial fraction.
The mitochondrial fractions were thawed and suspended with the sample buffer (0.25 mol/L sucrose, 20 mmol/L tris(hydroxymethyl)aminomethane hydrochloride (pH 7.5), 50 mmol/L potassium chloride, and 1 mL/L 4-(1,1,3,3-tetramethylbutyl)phenyl-polyethylene glycol (Triton X-100)). Active PDH activity (PDHa activity) and total PDH activity (PDHt activity) were measured to evaluate the PDH activity. For the measurement of the PDHt activity, equal amounts of the mitochondrial suspension and the activation buffer (0.25 mol/L sucrose, 20 mmol/L tris(hydroxymethyl)aminomethane hydrochloride (pH 7.5), 50 mmol/L potassium chloride, 1 mL/L Triton X-100, 4 mmol/L calcium chloride, 40 mmol/L magnesium chloride, 10 mmol/L sodium dichloroacetate) were mixed, and the mixtures were incubated at 37° C. for 10 min. Forty microliters of the mitochondrial suspensions diluted with a sample buffer were added to a 96-well microplate for activity measurement and blank measurement. Then 180 μL of the reaction mixture (0.056 mmol/L potassium phosphate buffer (pH 7.5), 5.6 mmol/L DL-carnitine, 2.8 mmol/L NAD, 0.22 mmol/L thiamin pyrophosphate, 0.11 mmol/L Coenzyme A, 1.1 mL/L Triton X-100, 1.1 mmol/L magnesium chloride, 1.1 g/L bovine serum albumin, 0.67 mmol/L INT, 7.2 μmol/L phenazine methosulfate, 28 mmol/L sodium oxamate) was added to each well, and then 20 μL of 50 mmol/L sodium pyruvate for activity measurement or water for blank measurement were added. The mixtures were incubated at room temperature under shading. The absorbances at 500-750 nm, which were attributable to reduction of INT, the final electron acceptor, were measured using a microplate reader over time and the changes in the absorbance were calculated. The PDH activity was calculated by subtraction of the change in absorbance of the blank well from that of the activity measurement well. The percentage of the PDHa activity to the PDHt activity was calculated and taken as an index of the PDH activation.

human PDHK2 (hPDHK2) = target: T1, human PDHK2 (hPDHK2) (Homo sapiens, UniProt Q15119); assay: Inhibitory action of PDHK2 activity in vitro (residual PDH activity after kinase reaction); assay type: biochemical
T1 construct: made in house; host or cells: Escherichia coli BL21(DE3), pET17b vector
Procedure: The inhibitory action of PDHK activity was assessed indirectly by measuring the residual PDH activity after kinase reaction in the presence of a test compound.
In the case of human PDHK2 (hPDHK2, Genbank Accession No. BC040478.1), modified hPDHK2 cDNA wherein FLAG-Tag sequence was added to the N terminus of hPDHK2 cDNA clone (pReceiver-M01/PDK2-GeneCopoeia) was prepared by PCR and cloned into a vector (pET17b-Novagen). The recombinant construct was transformed into Escherichia coli (DH5α-TOYOBO). The recombinant clones were identified, and plasmid DNA was isolated and subjected to the DNA sequence analysis. One clone which had the expected nucleic acid sequence was selected for expression work.
For expression of hPDHK2 activity, Escherichia coli strain BL21(DE3) cells (Novagen) were transformed with the pET17b vector containing modified hPDHK2 cDNA. The Escherichia coli were grown to an optical density 0.6 ([…]) at 30° C. Protein expression was induced by the addition of 500 μmol/L isopropyl-β-thiogalactopyranoside. The Escherichia coli were cultured at 30° C. for 5 hr and harvested by centrifugation. Resuspension of the Escherichia coli paste was disrupted by a microfluidizer. FLAG-Tagged protein was purified using FLAG affinity gel. The gel was washed with 20 mmol/L HEPES-NaOH, 500 mmol/L sodium chloride, 1% ethylene glycol, and 0.1% Pluronic F-68 (pH 8.0), and the binding protein was eluted with 20 mmol/L HEPES-NaOH, 100 μg/mL FLAG peptide, 500 mmol/L sodium chloride, 1% ethylene glycol, and 0.1% Pluronic F-68 (pH 8.0). The eluted fractions containing FLAG-Tagged protein were pooled, dialyzed against 20 mmol/L HEPES-NaOH, 150 mmol/L sodium chloride, 0.5 mmol/L EDTA, 1% ethylene glycol, and 0.1% Pluronic F-68 (pH 8.0), and preserved at −80° C.
0.05 U/mL PDH and 0.8 μg/mL hPDHK2 were mixed in a buffer (50 mmol/L 3-morpholinopropanesulfonic acid (pH 7.0), 20 mmol/L dipotassium hydrogen phosphate, 60 mmol/L potassium chloride, 2 mmol/L magnesium chloride, 0.4 mmol/L EDTA, and 0.2% Pluronic F-68, 2 mmol/L dithiothreitol), and the mixture was incubated at 4° C. overnight to obtain a PDH/hPDHK2 complex. The test compounds were diluted with DMSO. […] DMSO (1.5 μL) was added to control wells instead of the test compound. […] The mixture was incubated at room temperature for 90 min, and the residual PDH activity was measured. The absorbance at 340 nm before and after PDH reaction was measured using a microplate reader to detect NADH produced by the PDH reaction. The hPDHK2 inhibition rate (%) of the test compound was calculated from the formula [{(PDH activity of test compound−PDH activity of control)/PDH activity of blank−PDH activity of control)}×100].

[1] = Metabolic stability test in human liver microsome; assay type: in vitro ADME; conditions: 37° C., 5 μM
Procedure: Human liver microsome (manufactured by Xenotech, H0620, final concentration (after dilution), 0.2 mg protein/mL) was suspended in 100 mM potassium phosphate buffer (pH 7.4, containing β-nicotinamide adenine dinucleotide phosphate: 1.3 mM, D-glucose-6-phosphate: 3.3 mM, magnesium chloride: 3.3 mM, glucose-6-phosphate dehydrogenase: 0.45 U/mL), and further mixed with a test compound dissolved in MeCN/DMSO (95/5) (final concentration 5 μM). The mixture was incubated at 37° C. for 10 min and 60 min, acetonitrile containing formic acid (final concentration 0.1%) was added, and the mixture was centrifuged. The test compound (unmodified) in the supernatant was measured by high performance liquid chromatography/mass spectrometry (LC/MS) (manufactured by Waters, LC: Acquity UPLC, MS:SQ Detector or TQ Detector). The residual ratio (%) was calculated from the obtained measurement value.

[2] = Metabolic stability test in rat liver microsome; assay type: in vitro ADME
hERG = target: T2, hERG (Homo sapiens, UniProt Q12809); assay: hERG whole cell patch clamp test; assay type: cell-based; conditions: human, HEK293 cells transfected with hERG, pH 7.4; concentration 10 μmol/L; read-out: hERG inhibition rate (%)
T2 construct: host or cells: HEK293
Procedure: (§1) Using human ether-a-go-go related gene (hERG)-transfected HEK293 cells (Cytomyx Limited), an influence on hERG current was examined according to the whole cell patch clamp technique. The hERG-transfected HEK293 cells were passaged using a CO2 incubator (BNA-111, TABAI ESPEC CORP.) under the set conditions of 37° C., 5% CO2, saturated humidity. Culture containers used were Collagen Type I Coated 75 cm^2 flask (4123-010, AGC TECHNO GLASS CO., Ltd.) and Collagen Type I Coated 35 mm culture dish (4000-010, AGC TECHNO GLASS CO., Ltd.). The culture medium used was E-MEM (Eagle Minimum Essential Medium (Earle's Salts, Nikken biomedical laboratory) added with 10% FCS (Fetal bovine serum, BioWest, L.L.C.) and 1% MEM Non-Essential Amino Acids Solution (NEAA, Invitrogen Corporation). Geneticin for the selection of hERG gene expressing cells was added thereto to a concentration of 400 μg/mL. As the cells for the measurement, 3×10^4 hERG-transfected HEK293 cells were plated on a 35 mm culture dish 4 to 7 days before measurement of the hERG current. The culture dish produced for the measurement contained the above-mentioned culture medium without geneticin (Invitrogen Corporation).
(§2) The highest evaluation concentration of each compound was determined from the highest concentration at which precipitation was not found in the standard extracellular fluid (NaCl: 140 mmol/L, KCl: 2.5 mmol/L, MgCl2: 2 mmol/L, CaCl2: 2 mmol/L, HEPES: 10 mmol/L, glucose: 10 mmol/L (adjusted to pH 7.4 with Tris-base)). As the application method, each solution to be applied was ejected from a Y-tube having a tip diameter of about 0.25 mm, which was adjacent (about 2 mm) to the cells, and applied to the cells. The ejection rate was about 0.4 mL/min.
(§3) The experiment was performed at room temperature under a phase contrast microscope. The 35 mm culture dish plated with the cells was set on a measurement apparatus, and the standard extracellular fluid was continuously applied to the cells from the Y-tube. A glass electrode for the measurement was filled with an intracellular fluid (Potassium Gluconate: 130 mmol/L, KCl: 20 mmol/L, MgCl2: 1 mmol/L, ATP-Mg: 5 mmol/L, EGTA: 3.5 mmol/L, HEPES: 10 mmol/L (adjusted to pH 7.2 with Tris-base)). A conventional whole cell patch clamp method was applied to the cells, and the maintenance electric potential was set to −80 mV. Under a fixed electric potential, the whole cell current was amplified by an amplifier for patch clamp (AXOPATCH-200B, Axon Instruments, Inc.), and the data was loaded into a computer (IMC-P642400, Intermedical Co., Ltd.) using a data acquisition analysis software (pCLAMP 9.2, Axon Instruments, Inc.).
(§4) The measurement of the hERG current was performed in the following two steps. In both cases, the hERG current was initiated by giving a command potential (maintenance electric potential −80 mV, prepulse+20 mV, 1.5 sec, test-pulse −50 mV, 1.5 sec).
(§5) Step (1): The above-mentioned command potential was given at 0.1 Hz for 2 min.
(§6) Step (2): The above-mentioned command potential was subjected to P/3 subtraction of pCLAMP 9.2 to remove leak current. This was repeated three times and an average thereof was taken as hERG current.
(§7) Subsequent to step (1), Step (2) was performed (about 3 min), and the maximum tail current obtained by applying a test-pulse to the hERG current obtained by the method of step (2) was taken as hERG current value. Hereafter, the operations of (1) and (2) were alternately repeated until completion of the experiment and the hERG current value was measured.
(§8) Stable hERG current value was recorded three times (about 10 min), and the standard extracellular fluid was instantaneously exchanged with each application fluid. The hERG current value was measured three times (about 10 min) in the same manner during perfusion of the application fluid, and the current value obtained by the 3rd measurement was taken as hERG current value after perfusion of the application fluid. […]

[3] = target: T3, hERG current (hERG-transfected HEK293 cells) (Homo sapiens, UniProt Q12809); assay: hERG whole cell patch clamp test; assay type: cell-based; conditions: whole cell patch clamp, hERG-transfected HEK293 cells
T3 construct: host or cells: HEK293
Procedure: as §1, §2, §3, §4, §5, §6, §7, §8

T3 sequence (Q12809 whole entry): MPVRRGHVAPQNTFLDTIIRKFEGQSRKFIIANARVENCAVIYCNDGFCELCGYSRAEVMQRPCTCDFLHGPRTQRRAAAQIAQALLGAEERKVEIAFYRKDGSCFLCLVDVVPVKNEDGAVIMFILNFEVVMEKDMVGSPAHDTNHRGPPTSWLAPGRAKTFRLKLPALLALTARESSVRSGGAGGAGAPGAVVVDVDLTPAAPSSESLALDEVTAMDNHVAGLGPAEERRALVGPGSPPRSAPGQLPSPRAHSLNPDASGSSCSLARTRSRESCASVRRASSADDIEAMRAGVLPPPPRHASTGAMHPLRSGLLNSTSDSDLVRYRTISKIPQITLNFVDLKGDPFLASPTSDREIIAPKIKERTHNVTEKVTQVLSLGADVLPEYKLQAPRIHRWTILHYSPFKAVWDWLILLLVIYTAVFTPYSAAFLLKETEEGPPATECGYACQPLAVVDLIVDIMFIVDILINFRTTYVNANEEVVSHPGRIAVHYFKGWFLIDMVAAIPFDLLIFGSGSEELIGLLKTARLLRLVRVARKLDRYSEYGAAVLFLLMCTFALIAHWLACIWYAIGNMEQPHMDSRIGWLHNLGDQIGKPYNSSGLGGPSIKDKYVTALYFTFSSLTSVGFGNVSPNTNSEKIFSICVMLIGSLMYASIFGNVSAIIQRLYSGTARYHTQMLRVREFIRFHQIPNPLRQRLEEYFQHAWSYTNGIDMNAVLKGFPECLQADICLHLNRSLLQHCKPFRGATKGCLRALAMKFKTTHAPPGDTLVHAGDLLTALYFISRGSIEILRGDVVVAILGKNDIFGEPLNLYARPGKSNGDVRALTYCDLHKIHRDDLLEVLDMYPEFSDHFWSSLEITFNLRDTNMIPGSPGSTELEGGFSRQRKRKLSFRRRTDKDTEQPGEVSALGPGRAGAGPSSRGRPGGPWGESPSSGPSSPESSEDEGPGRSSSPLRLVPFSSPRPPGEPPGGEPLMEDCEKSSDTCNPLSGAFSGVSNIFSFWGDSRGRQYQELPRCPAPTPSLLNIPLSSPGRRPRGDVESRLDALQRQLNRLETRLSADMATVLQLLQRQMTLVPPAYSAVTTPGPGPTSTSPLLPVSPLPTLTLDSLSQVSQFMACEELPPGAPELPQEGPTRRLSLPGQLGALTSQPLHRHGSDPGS
T2 sequence (Q12809 whole entry): as above

Compound: C[C@@H](O)COc1cc(-c2cnn(C(C)(C)C(N)=O)c2)c2c(c1)[C@@](O)(C(F)(F)F)c1ccccc1-2 [compound (3), 2-(4-{(9R)-9-hydroxy-2-[(2R)-2-hydroxypropoxy]-9-(trifluoromethyl)-9H-fluoren-4-yl}-1H-pyrazol-1-yl)-2-methylpropanamide]
- PDHa activity (% PDHt activity) (tissue PDH activity; adipose tissue, 5 hr after oral administration): 59 ± 8 % PDHt activity
- PDHa activity (% PDHt activity) (tissue PDH activity; adipose tissue, 20 hr after oral administration): 54 % PDHt activity
- PDHa activity (% PDHt activity) (tissue PDH activity; liver, 5 hr after oral administration): 74 ± 11 % PDHt activity
- PDHa activity (% PDHt activity) (tissue PDH activity; liver, 20 hr after oral administration): 42 % PDHt activity
- IC50 (human PDHK2 (hPDHK2); PDH/hPDHK2 complex, 45 min kinase reaction at room temperature, read-out: hPDHK2 IC50): 4.7 nM
- stability in liver microsome (residual ratio %) ([1]; 10 min): 98.3%
- stability in liver microsome (residual ratio %) ([1]; 60 min): 99.7%
- stability in liver microsome (residual ratio %) ([2]; 10 min): 99.2%
- stability in liver microsome (residual ratio %) ([2]; 60 min): 99.8%

Compound: NC(=O)Cn1cc(-c2cc(OCCC34CC5CC(CC(O)(C5)C3)C4)cc3c2-c2ccccc2[C@]3(O)C(F)(F)F)cn1 [compound (A), 2-(4-{(9R)-9-Hydroxy-2-[2-(3-hydroxyadamantan-1-yl)ethoxy]-9-(trifluoromethyl)-9H-fluoren-4-yl}-1H-pyrazol-1-yl)acetamide, reference compound]
- IC50 (human PDHK2 (hPDHK2)): 5.1 nM
- stability in liver microsome (residual ratio %) ([1]; 10 min): 34.8%
- stability in liver microsome (residual ratio %) ([1]; 60 min): 0.0%
- stability in liver microsome (residual ratio %) ([2]; 10 min): 24.8%
- stability in liver microsome (residual ratio %) ([2]; 60 min): 0.0%
- inhibition at 10 μmol/L (hERG): 11.8%
- IC50 [3]: > 10000 nM

Reference: patent US20150018403A1, “FLUORENE-AMIDE COMPOUNDS AND PHARMACEUTICAL USE THEREOF” (JAPAN TOBACCO INC., priority 2013, published 2015)
